# Values quoted from earlier work, collected in patent publication US8648060B2, “Use of 3-alpha-androstanediol in combination with a 5-HT1a agonist, in the treatment of sexual dysfunction” (Emotional Brain B.V., priority 2006, dated 2014).
# Settings: serum concentration; capsule
smiles,measurement,value
"CCCc1nn(C)c2c(=O)[nH]c(-c3cc(S(=O)(=O)N4CCN(C)CC4)ccc3OCC)nc12.O=C(O)CC(O)(CC(=O)O)C(=O)O [sildenafil, 1-[[3-(6,7-dihydro-1-methyl-7-oxo-3-propyl-1Hpyrazolo[4,3-d]pyrimidin-5-yl)-4-ethoxyphenyl]sulfonyl]-4-methylpiperazine citrate]",Tmax of sildenafil,0.5 to 2 h
same,T½,3.5 h
